Experiments:
Test in all cases: relative viability (nuclei count vs DMSO), 5 days (fraction); higher = more cells survive
BI-2536 + OSI-027 = compound: CC[C@@H]1C(=O)N(C)c2cnc(Nc3ccc(C(=O)NC4CCN(C)CC4)cc3OC)nc2N1C1CCCC1 [BI-2536] + COc1cccc2cc(-c3nc([C@H]4CC[C@H](C(=O)O)CC4)n4ncnc(N)c34)[nH]c12 [OSI-027] (partner 0.5 µM)
Procedure, shortened: (§1)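 Lung cancer cell lines, seeded in 1536-well plates, were treated the following day by pin tool with a single drug or with five library-drug doses (not always all listed) in √10 steps on top of a fixed anchor-drug dose. Cells were fixed and nuclei stained in one step after 5 days, and nuclei were counted. Relative viability is the nuclei count for treated wells divided by that for vehicle wells, reported as medians of duplicate plates.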

NPK76-II-72-1 + Olaparib = compound: CC1CC(=O)N(C2=CN=C(N=C2N1C3CCCC3)NC4=C(C=C(C=C4)C(=O)NC5CCN(CC5)C)OC)C [NPK76-II-72-1] + O=C(c1cc(Cc2n[nH]c(=O)c3ccccc23)ccc1F)N1CCN(C(=O)C2CC2)CC1 [Olaparib] (partner 8 µM)
Procedure, shortened: as §1

BI-2536 + Trametinib = compound: CC[C@@H]1C(=O)N(C)c2cnc(Nc3ccc(C(=O)NC4CCN(C)CC4)cc3OC)nc2N1C1CCCC1 [BI-2536] + CC(=O)Nc1cccc(-n2c(=O)n(C3CC3)c(=O)c3c(Nc4ccc(I)cc4F)n(C)c(=O)c(C)c32)c1 [Trametinib] (partner 0.02 µM)
Procedure, shortened: as §1

BI-2536 + Crizotinib = compound: CC[C@@H]1C(=O)N(C)c2cnc(Nc3ccc(C(=O)NC4CCN(C)CC4)cc3OC)nc2N1C1CCCC1 [BI-2536] + C[C@@H](Oc1cc(-c2cnn(C3CCNCC3)c2)cnc1N)c1c(Cl)ccc(F)c1Cl [Crizotinib] (partner 1 µM)
Procedure, shortened: as §1

Cell Line | relative viability (BI-2536 + OSI-027; first compound 0.01 µM) | relative viability (BI-2536 + OSI-027; first compound 0.03162 µM) | relative viability (BI-2536 + OSI-027; first compound 0.1 µM) | relative viability (BI-2536 + OSI-027; first compound 0.3162 µM) | relative viability (BI-2536 + OSI-027; first compound 1 µM) | relative viability (NPK76-II-72-1 + Olaparib; first compound 0.01 µM) | relative viability (NPK76-II-72-1 + Olaparib; first compound 0.03162 µM) | relative viability (NPK76-II-72-1 + Olaparib; first compound 0.1 µM) | relative viability (NPK76-II-72-1 + Olaparib; first compound 0.3162 µM) | relative viability (NPK76-II-72-1 + Olaparib; first compound 1 µM) | relative viability (BI-2536 + Trametinib; first compound 0.03162 µM) | relative viability (BI-2536 + Trametinib; first compound 0.1 µM) | relative viability (BI-2536 + Trametinib; first compound 0.3162 µM) | relative viability (BI-2536 + Trametinib; first compound 1 µM) | relative viability (BI-2536 + Crizotinib; first compound 0.01 µM) | relative viability (BI-2536 + Crizotinib; first compound 0.03162 µM) | relative viability (BI-2536 + Crizotinib; first compound 0.1 µM) | relative viability (BI-2536 + Crizotinib; first compound 0.3162 µM) | relative viability (BI-2536 + Crizotinib; first compound 1 µM) | relative viability (BI-2536 + Trametinib; first compound 0.01 µM)
NCI-H2342 | 0.664 | 0.546 | 0.598 | 0.362 | 0.367 | 0.393 | 0.377 | 0.457 | 0.43 | 0.535 | 0.705 | 0.73 | 0.604 | 0.454 |  |  |  |  |  | 
SK-MES-1 | 0.601 | 0.458 | 0.178 | 0.173 | 0.182 | 0.646 | 0.787 | 0.794 | 0.746 | 0.728 | 0.555 | 0.407 | 0.196 | 0.161 | 0.997 | 1.01 | 0.86 | 0.212 | 0.18 | 0.523
HCC-366 | 0.835 | 0.856 | 0.146 | 0.0244 | 0.0284 | 0.328 | 0.374 | 0.469 | 0.39 | 0.366 | 0.371 | 0.235 | 0.0287 | 0.0227 | 0.528 | 0.49 | 0.369 | 0.0121 | 0.0124 | 0.364
201T | 0.331 | 0.715 | 0.728 | 0.0923 | 0.16 | 0.792 | 0.826 | 0.836 | 0.851 | 0.839 | 0.741 | 0.745 | 0.253 | 0.252 | 1.02 | 1.03 | 1 | 0.66 | 0.358 | 0.717
HCC-827 | 0.715 | 0.752 | 0.853 | 0.285 | 0.195 | 0.615 | 0.649 | 0.66 | 0.608 | 0.619 | 0.538 | 0.506 | 0.324 | 0.225 | 0.926 | 0.968 | 0.714 | 0.328 | 0.305 | 0.594
NCI-H647 | 0.814 | 0.807 | 0.529 | 0.0918 | 0.0985 | 0.633 | 0.48 | 0.755 | 0.46 | 0.661 | 0.458 | 0.213 | 0.087 | 0.0808 | 1.15 | 0.418 | 0.425 | 0.113 | 0.115 | 0.482
NCI-H2023 | 0.398 | 0.406 | 0.189 | 0.0915 | 0.0907 | 0.469 | 0.57 | 0.561 | 0.425 | 0.491 | 0.528 | 0.25 | 0.113 | 0.102 | 0.582 | 0.493 | 0.346 | 0.0851 | 0.0743 | 0.53
NCI-H520 | 0.277 | 0.289 | 0.195 | 0.292 | 0.2 | 0.294 | 0.351 | 0.268 | 0.385 | 0.343 | 0.503 | 0.352 | 0.187 | 0.164 | 0.764 | 0.323 | 0.202 | 0.184 | 0.117 | 0.712
